What all share (assay): NCI tumour cell line growth inhibition, 48 h
For assay [1], the system named is BT-549 breast.
In assay [2] the test system is COLO 205 colon.
The test system of assay [3] is HCC-2998 colon.
Assay [4] concerns HT29 colon.
Assay [5] concerns NCI-H226 lung.
Assay [6] concerns NCI-H23 lung.
Assay [7] has as its system RPMI-8226 leukemia.
Assay [8] concerns SF-295 CNS.
In assay [9] the test system is SF-539 CNS.
For assay [10], the system named is SK-MEL-5 melanoma.

The structures appear in SMILES notation. Where “and” joins values, the source holds several entries; their conditions need not be identical. Equal entries are not always repeated.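 Interpolation was linear, between the two tested concentrations surrounding the appropriate level; five concentrations were tested over 48 hours in 96-well plates. GI50 = concentration required for 50% inhibition of growth. TGI: concentration producing complete growth inhibition.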

The record followed here is PubChem BioAssay (NCI).

For `CC(C)(CO)Nc1c(O)c2c(c(O)c1Cl)C(=O)C=CC2=O`, the TGI in assay [1] amounted to 2.24 µM; in assay [2] it was 2.56 µM; in assay [3], 2.75 µM; in assay [4], 3.4 µM; in assay [5], 4.26 µM; in assay [6], 3.37 µM. Besides, the TGI in [7] came out at 4.82 µM; in assay [8], 3.21 µM; in assay [9], 2.7 µM; in assay [10], 2.35 µM.

Regarding `C[S+](C)C1(c2ccccc2)C(=O)c2ccccc2C1=O`, the TGI was 35.6 µM in assay [1]; greater than 100 µM in [2]; 42.8 µM in assay [3]; greater than 100 µM in assay [4]; greater than 100 µM in [5]; greater than 100 µM in assay [6]. The TGI in [7] was greater than 100 µM; in assay [8], 99.2 µM; in assay [9], greater than 68.1 µM; in assay [10] it was greater than 53.5 µM.

With `Cc1cc(=O)oc2c(CN(CCCl)CCCl)c(O)ccc12`, the TGI in assay [1] was 78.5 µM; in assay [2] it was 71.7 µM; in [3] it was greater than 100 µM; in assay [4], greater than 100 µM; in assay [5] it was greater than 100 µM; in [6], greater than 100 µM. Also, the TGI was 63.6 µM in [7], greater than 100 µM in [8], greater than 100 µM in assay [9] and greater than 100 µM in assay [10].

Take `O=C1CSC(c2cc3cc(Br)ccc3nc2Cl)N1c1ccc(F)c(Cl)c1` (configuration not stated): the TGI in assay [1], in assay [2], in assay [3], in assay [4], in assay [5] and in assay [6] was greater than 50 µM in each case. Further, the TGI in assay [7], in assay [8], in [9] and in [10] was greater than 50 µM each time.

On to `CO/C=C(/C(=O)OC)c1ccccc1[C@H]1C[C@@H]1c1ccccc1`, for which the TGI in assay [1] was 52.2 µM; in [2], 27.6 µM; in assay [3] it was 76.2 µM; in assay [4] it was 56.5 µM; in [5], 74.4 µM; in [6], greater than 100 µM. In addition, the TGI in assay [7] amounted to 38.1 µM; in assay [8] it was 98.2 µM; in assay [9] it was 42.7 µM; in assay [10] it was 20.8 µM.

With `CC(=O)O[C@H]1CC[C@]2(C=O)[C@H]3CC[C@]4(C)[C@@H](C5=CC(=O)OC5)CC[C@]4(O)[C@@H]3CC[C@]2(O)C1`, the TGI in [1] was found to be 0.575 µM; in assay [2], 1.64 µM; in assay [3], 1.33 µM; in [4] it was 1.05 µM; in assay [5], 1.97 µM; in [6], 0.373 µM. The TGI in assay [7] was determined as 3.21 µM; in assay [8], 0.853 µM; in [9] it was 0.26 µM; in assay [10], 0.473 µM.

For `Cc1cc(C)c(N)c(CO)c1`, the TGI in assay [1] was greater than 100 µM; in assay [2], greater than 100 µM; in assay [3], greater than 100 µM; in [4], greater than 100 µM; in assay [5], 1.73 µM and 4.56 µM; in assay [6] it was greater than 100 µM. Besides, the TGI in assay [7], in assay [8], in assay [9] and in [10] was greater than 100 µM throughout. Also, the GI50 in assay [4] is 12.5 µM and 38.2 µM; in assay [5], 0.236 µM and 1.26 µM.

Regarding `CSC(=N/N=C(\C)c1ccc(S(=O)(=O)N(C)c2ccccc2)cc1)SC`, the TGI in assay [1], in assay [2], in assay [3], in assay [4], in [5] and in [6] was greater than 100 µM in each case. Further, the TGI in assay [7], in assay [8], in assay [9] and in assay [10] was greater than 100 µM each time.

For the molecule `Cc1cnc2[nH]c(-c3sccc3C)cc(=O)c2c1`, the TGI is greater than 100 µM in assay [1]; greater than 25.5 µM in assay [2]; 96.8 µM in assay [3]; 10.3 µM in assay [4]; 39.3 µM in assay [5]; greater than 100 µM in assay [6]. In addition, the TGI in assay [7] is greater than 100 µM; in [8], greater than 100 µM; in assay [9], greater than 91.6 µM; in assay [10], 21.7 µM.

For `Cc1cc(S(=O)(=O)Nc2n[nH]c(N)n2)c(S)cc1Cl`, the TGI in assay [1], in assay [2], in assay [3], in assay [4], in assay [5] and in assay [6] was greater than 10 µM throughout. The TGI in [7], in assay [8], in assay [9] and in [10] was greater than 10 µM throughout.

Consider `COc1ccc(C(OCC2OC(n3ccc(Oc4c(F)c(F)c(F)c(F)c4F)nc3=O)CC2OP(OCCC#N)N(C(C)C)C(C)C)(c2ccccc2)c2ccc(OC)cc2)cc1` (configuration not stated), for which the TGI in assay [1], in [2], in assay [3], in assay [4], in assay [5] and in assay [6] was greater than 100 µM in each case. The TGI in assay [7], in [8], in assay [9] and in assay [10] was greater than 100 µM throughout.
